Experimental findings from US7582659B2, “Cyclopropyl group substituted oxazolidinone antibiotics and derivatives thereof” (Merck & Co., Inc., priority 2003, dated 2009) are described below.

Converted amounts (≈) assume the structure as drawn.

Holding throughout (format): cell-based
In assay [1] the test system is Morcaxella catarrhalis ATCC25238. Briefly: MIC, agar dilution method, Mueller-Hinton agar. The note with it: 35° C., 24 hours. As for the experimental part: (§1) The following in vitro results were obtained based on an agar dilution method except for C. pneumoniae. The activity is presented as the minimum inhibitory concentration (MIC).
(§2) S. aureus and M. catarrhalis were tested on Mueller-Hinton agar, using an approximate inoculum of 1×10^4 cfu/spot an incubation temperature of 35° C. for 24 hours. The MIC was defined as the lowest concentration at which no visible bacterial growth was observed.
On the technique in general: In agar dilution the substance is mixed into plates at graded concentrations.

Assay [2] relates to Streptococcus pneumoniae IID553. Briefly: MIC, agar dilution method, Mueller-Hinton agar with 5% defibrinated horse blood. The note with it: 35° C., 5 % CO2, 24 hours. The method, then:
as §1
(§3) Streptococci and enterococci were tested on Mueller-Hinton agar supplemented with 5% defibrinated horse blood, using an approximate inoculum of 1×10^4 cfu/spot an incubation temperature of 35° C. in an atmosphere of 5 % CO2 for 24 hours. The MIC was defined as the lowest concentration at which no visible bacterial growth was observed.

Assay [3] concerns Streptococcus pyogenes IID692. The assay is described as above. The note with it: 35° C., 5 % CO2, 24 hours. As for the experimental part: as §1, §3
Assay [4] has as its system Streptococcus pneumoniae PRQR (penicillin resistant, quinolone resistant). Described as above. The settings on record: 35° C., 5 % CO2, 24 hours. The method, then: as §1, §3
Assay [5] has as its system Enterococcus faecium VRQR (vancomycin resistant, quinolone resistant). The description is as above. The note with it: 35° C., 5 % CO2, 24 hours. The method, then: as §1, §3
Assay [6] has as its system Staphylococcus aureus CR (chloramphenicol resistant). Briefly: MIC, agar dilution method, Mueller-Hinton agar. The note with it: 35° C., 24 hours. As for the experimental part:
as §1, §2

For assay [7], the system named is Staphylococcus aureus Smith. As to the kind of experiment: MIC, agar dilution method, Mueller-Hinton agar. The note with it: 35° C., 24 hours. The method, then: as §1, §2
Assay [8] deals with Staphylococcus aureus MR (methicillin resistant). As to the kind of experiment: MIC, agar dilution method, Mueller-Hinton agar. The settings on record: 35° C., 24 hours. The method, then: as §1, §2

What is called MIC is the smallest concentration in the dilution series that meets the test's criterion for growth inhibition. The low end stands for inhibition by little substance, the high end for a need for much substance. On to `CC(=O)NC[C@H]1CN(c2ccc(N3CCOCC3)c(F)c2)C(=O)O1` [Linezolid, reference compound], for which it took 4 µg/mL (≈ 11.9 µM) to inhibit growth in assay [1] (MIC).

In the case of `CC(=O)NC[C@H]1CN(c2ccc(-c3ccc([C@@]4(C#N)[C@@H]5CNC[C@@H]54)c(F)c3)c(F)c2)C(=O)O1.Cl` [Example 15, N-[5(S)-3-[4-[4-[(1α,5α,6β)-6-Cyano-3-azabicyclo[3.1.0]hexan-6-yl]-3-fluorophenyl]-3-fluorophenyl]-2-oxooxazolidin-5-ylmethyl]acetamide Hydrochloride], the MIC was 0.25 µg/mL in assay [2]; 0.25 µg/mL in assay [3]; 0.25 µg/mL in assay [4]; 0.5 µg/mL in assay [5]; 1 µg/mL in assay [6]; 0.25 µg/mL in assay [7]. The MIC came out at 0.25 µg/mL in assay [8] and 4 µg/mL in assay [1].

For the compound `CC(=O)NC[C@H]1CN(c2ccc(-c3ccc([C@@]4(C#N)[C@@H]5CNC[C@@H]54)nc3)cc2)C(=O)O1.Cl` [Example 13, N-[5(S)-3-[4-[2-[(1α,5α,6β)-6-Cyano-3-azabicyclo[3.1.0]hexan-6-yl]pyridin-5-yl]phenyl]-2-oxooxazolidin-5-ylmethyl]acetamide Hydrochloride], the MIC in assay [2] worked out at 0.125 µg/mL; in assay [3] it was 0.06 µg/mL; in assay [4], 0.06 µg/mL; in assay [5], 0.125 µg/mL; in assay [6] it was 0.5 µg/mL; in assay [7] it was 0.125 µg/mL. The minimal inhibitory concentration (MIC) turned out to be 0.125 µg/mL in assay [8] and 1 µg/mL in assay [1].

As for `N#C[C@]1(c2ccc(-c3ccc(N4C[C@H](Cn5ccnn5)OC4=O)cc3F)cn2)[C@@H]2COC[C@@H]21` [Example 23, 1-[5(R)-3-[4-[2-[(1α,5α,6β)-6-Cyano-3-oxabicyclo[3.1.0]hexan-6-yl]pyridin-5-yl]-3-fluorophenyl]-2-oxooxazolidin-5-ylmethyl]-1,2,3-triazole], the MIC turned out to be 0.06 µg/mL (≈ 0.134 µM) in assay [2]; 0.06 µg/mL (≈ 0.134 µM) in assay [3]; 0.06 µg/mL (≈ 0.134 µM) in assay [4]; 0.06 µg/mL (≈ 0.134 µM) in assay [5]; 0.5 µg/mL (≈ 1.12 µM) in assay [6]; 0.06 µg/mL (≈ 0.134 µM) in assay [7]. For the same compound, the values for the MIC in assay [8] and in assay [1] were 0.06 µg/mL (≈ 0.134 µM) and 0.5 µg/mL (≈ 1.12 µM), respectively.
